In US12516062B2, “Agricultural or horticultural insecticide or animal ectoparasite or endoparasite control agent each comprising an imidazopyridazine compound having a substituted cyclopropane-oxadiazole group or a salt thereof as active ingredient, and method for using the insecticide or the control agent” (NIHON NOHYAKU CO., LTD., priority 2019, dated 2026):

What was measured:
Assay type in all cases: in vivo
Laodelphax striatellus = experiment: whole plant or invertebrate; conditions: 192 h, rice seedlings dipped 30 seconds, 3rd-instar larvae, 8 days after inoculation, read-out: insecticidal efficacy (corrected mortality rate), activity level
Plutella xylostella = experiment: whole plant or invertebrate; conditions: in Brassica rapa, 144 h, seedlings with laid eggs dipped about 30 seconds, 25° C., 6 days after dip treatment, read-out: insecticidal efficacy (corrected mortality rate), activity level
Haemonchus contortus = experiment: Larval motility assay on Haemonchus contortus; conditions: 96 h, L1 stage larvae, 4 days, relative to DMSO only, read-out: percent motility inhibition
Method: Larval Motility Assay on Haemonchus contortus
DMSO diluted solutions of various compounds of the present invention were added at the final concentration of 50 ppm to the wells of a 96-well plate containing a predetermined conditioned medium. Twenty L1 stage larvae of H. contortus were introduced into each well of the 96-well plate. The plate was allowed to stand for 4 days, and then larval motility was examined. The percent motility inhibition in the wells of each treatment was calculated relative to the wells of treatment with DMSO only.

Dirofilaria immitis = experiment: Larval motility assay on Dirofilaria immitis; conditions: 72 h, read-out: percent motility inhibition
Method: Larval Motility Assay on Dirofilaria immitis
Five hundred L1 stage larvae of D. immitis were diluted in a predetermined conditioned medium and introduced into each well of a 96-well plate. DMSO diluted solutions of various compounds of the present invention were added at the final concentration of 50 ppm to the wells of the 96-well plate. The plate was allowed to stand for 3 days, and then larval motility was examined. The percent motility inhibition in the wells of each treatment was calculated relative to the wells of treatment with DMSO only.

Rhipicephalus sanguineus = experiment: Assay for transdermal parasiticidal activity against nymphs of Rhipicephalus sanguineus; conditions: 48 h, read-out: mortality rate
Description: Assay for Transdermal Parasiticidal Activity Against Nymphs of Rhipicephalus sanguineus
DMSO diluted solutions of various compounds of the present invention were individually diluted to the final concentration of 100 ppm with an acetone/triton mixture and applied to the inside of vented sample bottles. After overnight drying, ten nymphs of R. sanguineus were introduced into each bottle, and the mortality rate was examined two days later. Aberrant adults were regarded as the dead.

CCS(=O)(=O)c1cc(-c2noc(C3CC3C)n2)cnc1-c1nc2cc(C(F)(F)C(F)(F)F)nnc2n1C (stereo not drawn) [Compound 1-1]
mortality at 500 ppm (Laodelphax striatellus): 100%
mortality at 500 ppm (Plutella xylostella): 100%
inhibition at 50 ppm (Haemonchus contortus): ≥ 50%
inhibition at 50 ppm (Dirofilaria immitis): ≥ 50%

CCS(=O)(=O)c1cc(-c2noc(C3(C(F)(F)F)CC3)n2)cnc1-c1nc2cc(C(F)(F)C(F)(F)F)nnc2n1C [Compound 1-2, 3-(5-(ethylsulfonyl)-6-(3-methyl-6-pentafluoroethyl-3[ ]-imidazo[4,5-c]pyridazin-2-yl)pyridin-3-yl)-5-(1-trifluoromethylcyclopropyl)-1,2,4-oxadiazole]
mortality at 500 ppm (Laodelphax striatellus): 100%
mortality at 500 ppm (Plutella xylostella): 100%
inhibition at 50 ppm (Haemonchus contortus): ≥ 50%
inhibition at 50 ppm (Dirofilaria immitis): ≥ 50%
mortality at 100 ppm (Rhipicephalus sanguineus): ≥ 50%

CCS(=O)(=O)c1cc(-c2noc(C3(c4ccccc4)CC3)n2)cnc1-c1nc2cc(C(F)(F)C(F)(F)F)nnc2n1C [Compound 1-3]
mortality at 500 ppm (Laodelphax striatellus): 100%
mortality at 500 ppm (Plutella xylostella): 100%
inhibition at 50 ppm (Haemonchus contortus): ≥ 50%
inhibition at 50 ppm (Dirofilaria immitis): ≥ 50%
mortality at 100 ppm (Rhipicephalus sanguineus): ≥ 50%

CCS(=O)(=O)c1cc(-c2noc(C3(C)CC3)n2)cnc1-c1nc2cc(C(F)(F)C(F)(F)F)nnc2n1C [Compound 1-4]
mortality at 500 ppm (Laodelphax striatellus): 100%
mortality at 500 ppm (Plutella xylostella): 100%
inhibition at 50 ppm (Haemonchus contortus): ≥ 50%
inhibition at 50 ppm (Dirofilaria immitis): ≥ 50%
